Results as given in US20250262262A1, “a-ACID AND/OR B-ACID BASED COPOSITIONS FROM HUMULUS FOR USE IN A HUMAN AND/OR VETERINARY APPLICATION” (Orotech NV, priority 2022, published 2025).

Tested on: Histomonas meleagridis
Assay: Growth and viability of in vitro cultivated Histomonas meleagridis
Type: cell-based
Details: for Histomonas meleagridis cells counted: extrudate corresponding to 200 μg tetra-hydro-iso-α-acid/ml, dimetridazole 400 μg/ml
Experimental: The effect of a tetra-hydro-iso-α-acids milled extrudate on the growth of Histomonas meleagridis in vitro was investigated. Therefore, a milled extrudate of tetra-hydro-iso-α-acids (corresponding to an amount of 200 μg tetra-hydro-iso-α-acid/ml), a positive control (dimetridazole, concentration of 400 μg/ml) and a negative control (distilled water without addition of any substance) were used. Histomonas meleagridis cells were counted before and after 24, 48 and 72 hours of incubation.

In the case of `Cc1ncc([N+](=O)[O-])n1C` [Dimetridazole, dimetridazole], the “Histomonas meleagridis cells counted” value (0 h (before incubation)) is reported as 1 × 10^5, the “Histomonas meleagridis cells counted” value (24 h of incubation) is reported as 0 and the “Histomonas meleagridis cells counted” value (48 h of incubation) is reported as 0. The “Histomonas meleagridis cells counted” value (72 h of incubation) was 0 and the “Effect on Histomonas meleagridis cells (in words)” value (in vitro, versus negative control) was “total reduction”.
